Measured values: PMC10154247, “Complex regulation in a Comamonas platform for diverse aromatic carbon metabolism” (Nature Chemical Biology, 2023)

Legend:
[1] = biological target: T1, PobA (4HB 3-monooxygenase) (Comamonas testosteroni, UniProt B7WVQ9); assay: NAD(P)H oxidation at […] nm; format: biochemical; settings: 10 mM 4HB, 5 mM MgCl2, pH 7.5, 30 °C
T1 construct: gene CtesDRAFT_PD2627; N-terminal His tag with TEV site, start codon removed; recombinant in E. coli BL21 (DE3), Ni-NTA

[2] = biological target: T2, ME-2 (Comamonas testosteroni, UniProt B7X1D4); assay: NADH formation at […] nm; settings: 0.5 and 2 mM, 1 mM L-malate, 0.5 mM NAD+, 5 mM MnCl2, pH 7.5, 30 °C
T2 construct: gene CtesDRAFT_PD5092
T2 sequence (B7X1D4 2-769): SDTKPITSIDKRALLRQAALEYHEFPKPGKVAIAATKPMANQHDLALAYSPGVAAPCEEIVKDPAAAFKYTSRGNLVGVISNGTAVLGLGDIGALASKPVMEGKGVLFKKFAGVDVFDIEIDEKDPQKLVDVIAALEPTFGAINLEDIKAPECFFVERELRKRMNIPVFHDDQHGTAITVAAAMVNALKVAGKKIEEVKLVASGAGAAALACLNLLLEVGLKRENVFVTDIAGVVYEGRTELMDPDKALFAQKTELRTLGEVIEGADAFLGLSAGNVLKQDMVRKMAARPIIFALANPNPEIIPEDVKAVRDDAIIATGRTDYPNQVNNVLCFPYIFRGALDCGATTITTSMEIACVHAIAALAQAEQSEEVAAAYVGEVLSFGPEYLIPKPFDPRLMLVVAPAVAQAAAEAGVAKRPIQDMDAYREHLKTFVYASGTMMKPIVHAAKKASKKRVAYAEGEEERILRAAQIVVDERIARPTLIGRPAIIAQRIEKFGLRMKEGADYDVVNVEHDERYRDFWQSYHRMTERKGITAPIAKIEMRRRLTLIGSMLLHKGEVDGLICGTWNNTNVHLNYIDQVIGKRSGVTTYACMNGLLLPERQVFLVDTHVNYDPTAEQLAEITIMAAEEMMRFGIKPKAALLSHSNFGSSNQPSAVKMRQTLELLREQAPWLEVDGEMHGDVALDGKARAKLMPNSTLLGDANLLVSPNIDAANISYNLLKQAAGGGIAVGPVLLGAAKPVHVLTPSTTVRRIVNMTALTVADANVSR

[3] = biological target: T3, PEPs (PEP synthase) (Comamonas testosteroni, UniProt B7X5R8); assay: pyruvate consumption by HPLC-RI; format: biochemical; settings: allosteric inhibitor, 2 or 5 mM (printed as 'up to'); 1 mM pyruvate, 1.5 mM ATP, 5 mM MgCl2, pH 7.5, 30 °C
T3 construct: gene CtesDRAFT_PD3828; N-terminal His tag with TEV site, start codon removed; recombinant in E. coli BL21 (DE3), Ni-NTA
T3 sequence (B7X5R8 2-796): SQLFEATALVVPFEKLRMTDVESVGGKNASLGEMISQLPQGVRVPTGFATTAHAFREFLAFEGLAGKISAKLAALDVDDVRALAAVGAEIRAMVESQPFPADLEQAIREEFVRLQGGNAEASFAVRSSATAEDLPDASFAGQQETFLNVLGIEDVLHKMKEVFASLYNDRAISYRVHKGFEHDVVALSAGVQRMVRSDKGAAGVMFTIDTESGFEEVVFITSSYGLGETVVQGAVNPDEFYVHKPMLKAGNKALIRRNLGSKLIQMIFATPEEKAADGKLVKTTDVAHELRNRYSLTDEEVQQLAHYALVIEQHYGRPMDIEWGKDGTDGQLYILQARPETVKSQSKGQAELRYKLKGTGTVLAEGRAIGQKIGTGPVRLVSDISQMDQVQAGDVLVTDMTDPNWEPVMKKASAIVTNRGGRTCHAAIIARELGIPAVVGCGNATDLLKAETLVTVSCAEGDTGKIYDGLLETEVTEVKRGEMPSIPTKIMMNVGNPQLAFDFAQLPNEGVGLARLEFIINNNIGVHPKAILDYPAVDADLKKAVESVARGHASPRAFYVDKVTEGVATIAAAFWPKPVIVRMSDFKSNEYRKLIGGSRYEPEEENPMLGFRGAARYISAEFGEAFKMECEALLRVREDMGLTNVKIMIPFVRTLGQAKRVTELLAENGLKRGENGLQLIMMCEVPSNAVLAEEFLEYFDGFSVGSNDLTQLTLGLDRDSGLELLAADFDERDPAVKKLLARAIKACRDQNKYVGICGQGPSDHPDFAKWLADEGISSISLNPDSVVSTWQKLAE

[4] = biological target: T4, Mdh (Comamonas testosteroni, UniProt A0A096F047); assay: NAD(P)H oxidation at […] nm; format: biochemical; settings: 10 mM oxaloacetate, 5 mM MgCl2, pH 7.5, 30 °C
T4 construct: gene mdh_1; C-terminal His tag, start and stop codons deleted; recombinant in E. coli BL21 (DE3), Ni-NTA
T4 sequence (A0A096F047 2-329): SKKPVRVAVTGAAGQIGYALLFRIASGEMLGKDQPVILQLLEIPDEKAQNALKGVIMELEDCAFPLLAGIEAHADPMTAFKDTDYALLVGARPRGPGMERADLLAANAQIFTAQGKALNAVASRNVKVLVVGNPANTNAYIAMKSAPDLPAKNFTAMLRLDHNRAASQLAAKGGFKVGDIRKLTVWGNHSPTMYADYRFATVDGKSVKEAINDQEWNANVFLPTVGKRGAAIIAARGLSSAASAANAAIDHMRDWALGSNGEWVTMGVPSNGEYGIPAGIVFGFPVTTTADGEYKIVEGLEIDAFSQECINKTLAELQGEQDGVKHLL

[5] = biological target: T5, ME-1 (Comamonas testosteroni, UniProt B7WXG5); assay: NADPH formation at […] nm; settings: allosteric activator, 0.5 and 2 mM; 1 mM L-malate, 0.5 mM NADP+, 5 mM MnCl2, pH 7.5, 30 °C
T5 construct: gene CtesDRAFT_PD0934
T5 sequence (B7WXG5 2-765): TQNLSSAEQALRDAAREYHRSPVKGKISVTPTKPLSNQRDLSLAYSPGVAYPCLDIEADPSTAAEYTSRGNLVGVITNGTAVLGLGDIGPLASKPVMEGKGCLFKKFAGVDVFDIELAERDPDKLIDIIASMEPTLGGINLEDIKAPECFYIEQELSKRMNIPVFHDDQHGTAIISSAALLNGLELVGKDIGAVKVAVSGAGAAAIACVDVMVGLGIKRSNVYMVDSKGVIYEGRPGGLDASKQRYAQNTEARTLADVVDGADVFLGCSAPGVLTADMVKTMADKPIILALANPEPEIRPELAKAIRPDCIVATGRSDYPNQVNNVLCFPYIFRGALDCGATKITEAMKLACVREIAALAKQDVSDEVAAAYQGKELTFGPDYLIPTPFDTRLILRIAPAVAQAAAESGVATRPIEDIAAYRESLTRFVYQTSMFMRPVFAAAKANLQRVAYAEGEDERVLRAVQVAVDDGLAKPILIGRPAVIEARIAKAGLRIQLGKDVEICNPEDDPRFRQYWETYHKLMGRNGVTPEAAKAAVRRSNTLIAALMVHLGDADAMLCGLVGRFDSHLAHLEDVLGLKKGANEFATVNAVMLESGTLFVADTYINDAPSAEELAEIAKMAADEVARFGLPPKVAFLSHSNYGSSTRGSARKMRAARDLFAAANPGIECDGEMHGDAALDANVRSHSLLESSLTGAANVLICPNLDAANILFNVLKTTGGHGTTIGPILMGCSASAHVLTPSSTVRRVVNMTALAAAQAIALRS

## NC(=O)C1=CN([C@@H]2O[C@H](COP(=O)(O)OP(=O)(O)OC[C@H]3O[C@@H](n4cnc5c(N)ncnc54)[C@H](OP(=O)(O)O)[C@@H]3O)[C@@H](O)[C@H]2O)C=CC1 [NADPH]
[1]
  NAD(P)H oxidation at 340 nm: NADPH was the cofactor for PobA and for ME-1, IDH1 and IDH2

## O=C(O)CCC(=O)C(=O)O [αKG]
[2]; allosteric inhibitor
  relative activity (%): only high concentrations of αKG had a significant inhibitory impact on ME-2
[3]
  % decrease in pyruvate consumption: ~ 35%

## NC(=O)C1=CN([C@@H]2O[C@H](COP(=O)(O)OP(=O)(O)OC[C@H]3O[C@@H](n4cnc5c(N)ncnc54)[C@H](O)[C@@H]3O)[C@@H](O)[C@H]2O)C=CC1 [NADH]
[4]
  NAD(P)H oxidation at 340 nm: NADH was the preferred cofactor for ME-2 and Mdh

## O=C(O)CCC(=O)O [succinate]
[2]; allosteric activator
  relative activity (%): moderate activation in the presence of succinate and glutamate
[5]
  relative activity (%): moderate activation in the presence of succinate and glutamate
